Reference: patent US11479539B2, “Small molecule modulators of the BTB domain of Keap1” (MedImmune Limited, priority 2017, dated 2022)

The compounds below were run against Keap1 (Homo sapiens (Human), UniProt Q14145) (assay: HEK293 ARE luciferase assay). Conditions: HEK-293 ARE firefly luciferase transiently transfected cells; 18 h incubation; mean of 1 to 20 individual measurements.
Assay type: cell-based
Text: The purpose of this assay is to identify small molecule inhibitors of Keap1, preventing Keap1 binding to Nrf2, and thus activating the Nrf2 signalling pathway in HEK-293 ARE firefly luciferase transiently transfected cells. HEK-293 cells express wild-type Keap1 protein and therefore have low constitutive levels of Nrf2 protein and Nrf2-dependent transcription. […] When Keap1 is inhibited, Nrf2 signalling is activated, and there is an increase in luciferase expression and light emission.
Cryopreserved HEK ARE luciferase cells were rapidly thawed in a 37° C. water bath and resuspended in assay culture medium (DMEM, 10% FCS, 2 mM L-glutamine). The cell suspension was pelleted by centrifugation ([…]; 300 g) using a Heraeus benchtop centrifuge. Supernatant was removed and the pellet was gently resuspended in 5 mL culture medium per vial. Cell viability and cell number was measured using an Invitrogen Countess automated cell counter (typical viability 80%), and cells were diluted to a density of 5.0×10^5 cells/mL.
Cells were then plated out into white 384-well plates (Greiner 781080) using a Multidrop Combi, 20 μL/well, to give 10,000 cells/well. As appropriate, test compounds had been added to wells prior to dispensing cells using an Echo 555 acoustic dispenser (Labcyte). Plates were left at room temperature for ˜10 min to promote even cell settling across the plate before incubation for 18 h at 37° C., 95% humidity and 5% CO2.
After 18 h incubation, plates were removed from the incubator and allowed to cool to room temperature for 30 min, before 10 μL per well SteadyGlo reagent detection reagent was added (as per manufacturer's instructions, 10 min before required 10 mL room temperature buffer was added to one vial of lyophilised substrate and inverted several times to fully dissolve). Plates were then incubated in the dark for 30 min before reading on an Envision plate reader.
Compounds were acoustically dispensed using a Labcyte Echo, using a 10 pt dose curve with a top concentration of 100 μM. Assay wells were backfilled with DMSO to a total of 60 nL to maintain 0.3% (v/v) DMSO through the assay.
The Stimulator signal was defined using 30 μM tert-butyl hydroquinone (tBHQ) and the Neutral signal by DMSO vehicle control. All calculations were performed using GeneData.
In IBIS Column Calculations, Assay Type was set to ‘Stimulator’, and the Activity Threshold was set to 50.
The mean values were calculated from anywhere from 1 to 20 individual measurements.

Keap1, sequence (Q14145 whole entry): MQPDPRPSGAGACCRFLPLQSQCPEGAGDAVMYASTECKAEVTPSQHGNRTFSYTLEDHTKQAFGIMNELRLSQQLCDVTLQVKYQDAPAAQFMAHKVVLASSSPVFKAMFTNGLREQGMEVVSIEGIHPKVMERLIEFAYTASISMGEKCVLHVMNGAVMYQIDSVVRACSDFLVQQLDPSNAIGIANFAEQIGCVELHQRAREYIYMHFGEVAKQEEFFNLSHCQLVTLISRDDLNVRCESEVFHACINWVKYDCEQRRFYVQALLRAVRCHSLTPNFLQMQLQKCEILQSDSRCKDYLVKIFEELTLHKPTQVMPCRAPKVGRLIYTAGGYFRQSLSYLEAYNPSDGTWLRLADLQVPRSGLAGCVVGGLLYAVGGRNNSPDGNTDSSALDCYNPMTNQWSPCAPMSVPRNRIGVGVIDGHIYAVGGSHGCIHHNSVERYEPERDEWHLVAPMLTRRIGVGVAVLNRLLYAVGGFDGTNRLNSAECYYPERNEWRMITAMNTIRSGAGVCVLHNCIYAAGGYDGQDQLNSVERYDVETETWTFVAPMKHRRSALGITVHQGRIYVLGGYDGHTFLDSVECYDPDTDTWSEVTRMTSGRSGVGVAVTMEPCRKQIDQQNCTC

With `COC1(c2ncc(F)cc2-c2cc(C)nc(C)c2)C=C(C#N)C(=O)C(C)(C)C1` (single isomer, unassigned) [Compound 77, 3-[3-(2,6-dimethyl-4-pyridyl)-5-fluoro-2-pyridyl]-3-methoxy-5,5-dimethyl-6-oxo-cyclohexene-1-carbonitrile] as the compound, how does the EC50 read?
Its EC50 is 4 nM.

Which EC50 does the source give for `COC1(c2ncc(F)cc2-c2cn(C)nc2C)C=C(C#N)C(=O)C(C)(C)C1` (single isomer, unassigned) [Compound 78, 3-[3-(1,3-dimethylpyrazol-4-yl)-5-fluoro-2-pyridyl]-3-methoxy-5,5-dimethyl-6-oxo-cyclohexene-1-carbonitrile] here?
The EC50 was 2 nM.

Which EC50 does the source give for `COC1(c2ncc(F)cc2-c2cccnc2C)C=C(C#N)C(=O)C(C)(C)C1` (single isomer, unassigned) [Compound 79, 3-[5-fluoro-3-(2-methyl-3-pyridyl)-2-pyridyl]-3-methoxy-5,5-dimethyl-6-oxo-cyclohexene-1-carbonitrile] here?
The EC50 was 74 nM.

How did the EC50 turn out when `COC1(c2ncc(F)cc2-c2cnn(-c3ccccc3)c2)C=C(C#N)C(=O)C(C)(C)C1` (single isomer, unassigned) [Compound 81, 3-[5-fluoro-3-(1-phenylpyrazol-4-yl)-2-pyridyl]-3-methoxy-5,5-dimethyl-6-oxo-cyclohexene-1-carbonitrile] was run?
Its EC50 is 2 nM.

Which EC50 does the source give for `COC1(c2ncc(F)cc2-c2ccnc(C)c2C)C=C(C#N)C(=O)C(C)(C)C1` (single isomer, unassigned) [Compound 82, 3-[3-(2,3-dimethyl-4-pyridyl)-5-fluoro-2-pyridyl]-3-methoxy-5,5-dimethyl-6-oxo-cyclohexene-1-carbonitrile] here?
The EC50 was 52 nM.

Which EC50 does the source give for `COC1(c2ncc(F)cc2-c2cnn(C3CCCC3)c2)C=C(C#N)C(=O)C(C)(C)C1` (single isomer, unassigned) [Compound 83, 3-[3-(1-cyclopentylpyrazol-4-yl)-5-fluoro-2-pyridyl]-3-methoxy-5,5-dimethyl-6-oxo-cyclohexene-1-carbonitrile] here?
Its EC50 is 70 nM.

With `COC1(c2ncc(F)cc2-c2cncc(F)c2)C=C(C#N)C(=O)C(C)(C)C1` (single isomer, unassigned) [Compound 84, 3-[5-fluoro-3-(5-fluoro-3-pyridyl)-2-pyridyl]-3-methoxy-5,5-dimethyl-6-oxo-cyclohexene-1-carbonitrile] as the compound, how does the EC50 read?
The EC50 was 6 nM.

How did the EC50 turn out when `COC1(c2ncc(F)cc2-c2cncc(C#N)c2)C=C(C#N)C(=O)C(C)(C)C1` (single isomer, unassigned) [Compound 85, 2′-(3-cyano-1-methoxy-5,5-dimethyl-4-oxocyclohex-2-enyl)-5′-fluoro-3,3′-bipyridine-5-carbonitrile] was run?
The EC50 was 6 nM.

Which EC50 does the source give for `CCn1cc(-c2cc(F)cnc2C2(OC)C=C(C#N)C(=O)C(C)(C)C2)cn1` (single isomer, unassigned) [Compound 86, 3-[3-(1-ethylpyrazol-4-yl)-5-fluoro-2-pyridyl]-3-methoxy-5,5-dimethyl-6-oxo-cyclohexene-1-carbonitrile] here?
The EC50 was 9 nM.

With `COC1(c2ncc(F)cc2-c2cncc(C(F)(F)F)c2)C=C(C#N)C(=O)C(C)(C)C1` (single isomer, unassigned) [Compound 87, 3-[5-fluoro-3-[5-(trifluoromethyl)-3-pyridyl]-2-pyridyl]-3-methoxy-5,5-dimethyl-6-oxo-cyclohexene-1-carbonitrile] as the compound, how does the EC50 read?
The EC50 was 17 nM.

Which EC50 does the source give for `COC1(c2ncc(F)cc2-c2cncc(Cl)c2)C=C(C#N)C(=O)C(C)(C)C1` (single isomer, unassigned) [Compound 88, 3-[3-(5-chloro-3-pyridyl)-5-fluoro-2-pyridyl]-3-methoxy-5,5-dimethyl-6-oxo-cyclohexene-1-carbonitrile] here?
The EC50 was 9 nM.

With `COC1(c2ncc(F)cc2-c2cnc(C)nc2)C=C(C#N)C(=O)C(C)(C)C1` (single isomer, unassigned) [Compound 89, 3-[5-fluoro-3-(2-methylpyrimidin-5-yl)-2-pyridyl]-3-methoxy-5,5-dimethyl-6-oxo-cyclohexene-1-carbonitrile] as the compound, how does the EC50 read?
Its EC50 is 11 nM.

Which EC50 does the source give for `COC1(c2ncc(F)cc2-c2ccc(C(F)(F)F)nc2)C=C(C#N)C(=O)C(C)(C)C1` (single isomer, unassigned) [Compound 90, 3-[5-fluoro-3-[6-(trifluoromethyl)-3-pyridyl]-2-pyridyl]-3-methoxy-5,5-dimethyl-6-oxo-cyclohexene-1-carbonitrile] here?
The EC50 was 11 nM.

For `COC1(c2ncc(F)cc2-c2c(C)nn(C)c2C)C=C(C#N)C(=O)C(C)(C)C1` (single isomer, unassigned) [Compound 92, 3-[5-fluoro-3-(1,3,5-trimethylpyrazol-4-yl)-2-pyridyl]-3-methoxy-5,5-dimethyl-6-oxo-cyclohexene-1-carbonitrile], which EC50 is on record?
Its EC50 is 67 nM.

With `COC1(c2ncc(F)cc2-c2sc(C)nc2C)C=C(C#N)C(=O)C(C)(C)C1` (single isomer, unassigned) [Compound 93, 3-[3-(2,4-dimethylthiazol-5-yl)-5-fluoro-2-pyridyl]-3-methoxy-5,5-dimethyl-6-oxo-cyclohexene-1-carbonitrile] as the compound, how does the EC50 read?
Its EC50 is 5 nM.

With `C/C=C/c1cc(F)cnc1C1(OC)C=C(C#N)C(=O)C(C)(C)C1` (single isomer, unassigned) [Compound 94, 3-{5-fluoro-3-[(1E)-prop-1-en-1-yl]pyridin-2-yl}-3-methoxy-5,5-dimethyl-6-oxocyclohex-1-ene-1-carbonitrile] as the compound, how does the EC50 read?
Its EC50 is 21 nM.

With `COC1(c2nc(C)c(Br)s2)C=C(C#N)C(=O)C(C)(C)C1` (single isomer, unassigned) [Compound 98, 3-(5-bromo-4-methyl-1,3-thiazol-2-yl)-3-methoxy-5,5-dimethyl-6-oxocyclohex-1-ene-1-carbonitrile] as the compound, how does the EC50 read?
Its EC50 is 79 nM.

`COC1(c2nc(C)c(-c3ccccn3)s2)C=C(C#N)C(=O)C(C)(C)C1` (single isomer, unassigned) [Compound 99, 3-methoxy-5,5-dimethyl-3-[4-methyl-5-(pyridin-2-yl)-1,3-thiazol-2-yl]-6-oxocyclohex-1-ene-1-carbonitrile] was tested. Which EC50 did it give?
The EC50 was 66 nM.

`COC1(c2ncc(F)cc2C#CC(C)C)C=C(C#N)C(=O)C(C)(C)C1` (single isomer, unassigned) [Compound 100, 3-[5-fluoro-3-(3-methylbut-1-yn-1-yl)pyridin-2-yl]-3-methoxy-5,5-dimethyl-6-oxocyclohex-1-ene-1-carbonitrile] was tested. Which EC50 did it give?
The EC50 was 77 nM.

For `CCCc1cccnc1C1(OC)C=C(C#N)C(=O)C(C)(C)C1` (single isomer, unassigned) [Compound 101, 3-methoxy-5,5-dimethyl-6-oxo-3-(3-propylpyridin-2-yl)cyclohex-1-ene-1-carbonitrile], which EC50 is on record?
The EC50 was 33 nM.

Which EC50 does the source give for `COC1(c2nc(C)c(-c3ccccn3)s2)C=C(C#N)C(=O)C2(CC2)C1` (single isomer, unassigned) [Compound 102, 7-methoxy-7-[4-methyl-5-(pyridin-2-yl)-1,3-thiazol-2-yl]-4-oxospiro[2.5]oct-5-ene-5-carbonitrile] here?
The EC50 was 73 nM.

For `COC1(c2cccc(-c3cncnc3)n2)C=C(C#N)C(=O)C(C)(C)C1` (single isomer, unassigned) [Compound 104, 3-methoxy-5,5-dimethyl-6-oxo-3-(6-(pyrimidin-5-yl)pyridin-2-yl)cyclohex-1-ene-1-carbonitrile], which EC50 is on record?
The EC50 was 45 nM.

With `COC1(c2cccc(-c3cnn(C)c3)n2)C=C(C#N)C(=O)C(C)(C)C1` (single isomer, unassigned) [Compound 107, 3-methoxy-5,5-dimethyl-3-(6-(1-methyl-1H-pyrazol-4-yl)pyridin-2-yl)-6-oxocyclohex-1-ene-1-carbonitrile] as the compound, how does the EC50 read?
Its EC50 is 37 nM.

For `COC1(c2ncc(F)cc2-c2ccc3nc(C)cn3c2)C=C(C#N)C(=O)C(C)(C)C1` (single isomer, unassigned) [Compound 201, 3-[5-fluoro-3-(2-methylimidazo[1,2-a]pyridin-6-yl)pyridin-2-yl]-3-methoxy-5,5-dimethyl-6-oxocyclohex-1-ene-1-carbonitrile], which EC50 is on record?
The EC50 was 182 nM.

With `COC1(c2ncc(F)cc2-c2ccc3ccnn3c2)C=C(C#N)C(=O)C(C)(C)C1` (single isomer, unassigned) [Compound 203, 3-[5-fluoro-3-(pyrazolo[1,5-a]pyridin-6-yl)pyridin-2-yl]-3-methoxy-5,5-dimethyl-6-oxocyclohex-1-ene-1-carbonitrile] as the compound, how does the EC50 read?
The EC50 was 6 nM.

`COC1(c2ncc(C)cn2)C=C(C#N)C(=O)C(C)(C)C1` (single isomer, unassigned) [Compound 204, 3-methoxy-5,5-dimethyl-3-(5-methylpyrimidin-2-yl)-6-oxocyclohex-1-ene-1-carbonitrile] was tested. Which EC50 did it give?
The EC50 was 9 nM.
